Measured values taken from PMC3934894, “Inhibition of Human and Yeast 20S Proteasome by Analogues of Trypsin Inhibitor SFTI-1” (PLoS ONE, 2014).

Assays:
[1] = tested on: 20S proteasome, ChT-L activity; conditions: cited from earlier work
[2] = tested on: 20S proteasome, C-L activity; conditions: cited from earlier work
[3] = tested on: 20S proteasome, T-L activity; conditions: cited from earlier work
HL-60 = tested on: HL-60; parameters: method as in PMID 10805568; conditions: human cancer cells HL-60; read-out: cytotoxic activity IC50, HL-60; cited from earlier work
HCT-116 = tested on: HCT-116; parameters: method as in PMID 10805568; conditions: human cancer cells HCT-116; read-out: cytotoxic activity IC50, HCT-116; cited from earlier work
[4] = target: human 20S proteasome, caspase-like (C-L) activity (Homo sapiens, UniProt P28072); assay: C-L activity of SDS-activated human 20S proteasome (Z-LLE-AMC); conditions: read-out: C-like Human 20S IC50; SDS-activated human 20S, pH 8.1, 37°C, Z-LLE-AMC 79 µM
Protocol: An assay buffer was composed of 50 mM Tris-HCl (pH 8.1) and 0.02% (w/v) SDS (exceptionally, T-L activity was measured in Tris buffer without SDS, that may trigger precipitation of substrates containing the guanidino group [21]). […] The SFTI-1 analogues were incubated with 20S proteasome in assay buffer at 37°C for 30 min. Reactions were performed in 96-well black BRAND plates (Germany). The final volume of the solution in each well was 200 µL. […] Proteasomal subsite activities were determined by monitoring the AMC liberation over time with a Fluorostar Omega (BMG Labtech, Germany) using excitation and emission wavelengths of 380 nm and 450 nm, respectively. […] Association constants Ka were measured as described previously [14] and calculated using a two-parameter fit model (using the GraFit software package).

bovine β-trypsin = conditions: cited from earlier work
20S proteasome = tested on: 20S proteasome; parameters: method as in PMID 19054805; conditions: cited from earlier work
bovine α-chymotrypsin = tested on: bovine α-chymotrypsin; parameters: method as in PMID 15746161; conditions: determined previously in the authors' laboratory; cited from earlier work

In the case of `C/C=C\NC(=O)[C@H]1NC(=O)[C@H](CC(N)=O)NC(=O)[C@@H](NC(=O)C(=O)[C@@H](C)CC)Cc2ccc(O)c(c2)-c2cccc3c2NC(=O)[C@@]3(O)[C@@H]1O` [TMC-95A], the IC50 ([1]; read-out: IC50 ChT-L activity of 20S proteasome) is listed as 5.4 nM, the Ki ([1]; read-out: Ki app (apparent Ki constant) ChT-L) is listed as 1.1 nM and the IC50 ([2]; read-out: IC50 C-L activity of 20S proteasome) is listed as 60 nM. For the same compound, the Ki ([2]; read-out: Ki app (apparent Ki constant) C-L) was 29 nM, the IC50 ([3]; read-out: IC50 T-L activity of 20S proteasome) was 200 nM and the Ki ([3]; read-out: Ki app (apparent Ki constant) T-L) was 810 nM. The IC50 (HL-60) was 9800 nM and the IC50 (HCT-116) was 4400 nM.

In the case of sunflower trypsin inhibitor SFTI-1, the IC50 [4] is given as 58200 nM, the “association constant Ka with trypsin” value (bovine β-trypsin) is given as 1.1e+10 M⁻¹ and the Ki (bovine β-trypsin; read-out: inhibitory constant Ki, trypsin) is given as 0.5 nM. The “inhibition of 20S proteasome” value (20S proteasome) was “does not cause any inhibition”.

In the case of [Phe^5]SFTI-1, the “Ka with bovine α-chymotrypsin” value (bovine α-chymotrypsin) is listed as 2e+09 M⁻¹.
